Holding throughout (assay type): biochemical
The target in one assay is T1, human DPP8 (Homo sapiens, UniProt Q6V1X1).
T1 construct: made in house; host or cells: Sf9 insect cells (baculovirus)
In words: DPP8 IC50 measurement (Ala-Pro-pNA). Conditions: for IC50: Ala-Pro-pNA 300 μM, pH 7.4, read-out: DPP8 IC50; for Selectivity index DPP8: IC50(DPP8)/IC50(FAP). An excerpt: (§1) Used Enzymes in these Assays: • A gateway-entry clone for human FAP was purchased from Dharmacon (Accession number DQ891423) and the human secretion signal was replaced with the HoneyBee mellitin secretion signal. For transfection and expression of FAP in Sf9 insect cells the C-terminal BaculoDirect kit from LifeTechnologies was used. The enzyme was purified from the supernatant of the insect cells using immobilized Ni-chelating chromatography (GE healthcare, Diegem, Belgium), followed by anion-exchange chromatography using a 1 mL HiTrap Q and size exclusion chromatography using the Superdex 200 column (GE healthcare, Diegem, Belgium). • Human recombinant PREP was expressed in BL21(DE3) cells and purified using immobilized Co-chelating chromatography (GE healthcare), followed by anion-exchange chromatography on a 1 ml Mono Q column (GE healthcare). • DPP4 was purified from human seminal plasma. • Gateway-entry clones for human DPP8 and DPP9 were purchased from Dharmacon (Accession numbers DQ891733 and DQ892325 respectively). For transfection and expression of DPP8 and DPP9 in Sf9 insect cells the N-terminal BaculoDirect kit from LifeTechnologies was used. The enzymes were purified using immobilized Ni-chelating chromatography (GE healthcare, Diegem, Belgium), followed by anion-exchange chromatography using a 1 mL Mono Q (GE healthcare, Diegem, Belgium). • Recombinant human DPP2 was purchased from R&D.
(§2) Eight concentrations of inhibitors/probe were tested. The final DMSO concentration was kept constant during the experiment to exclude any effects. Inhibitors were pre-incubated with the enzyme for 15 minutes at 37° C., afterwards the substrate was added and the velocities of AMC release were measured kinetically at λex=380 nm, λem=465 nm for at least 10 minutes at 37° C. […] Eight concentrations of inhibitors were tested. The final DMSO concentration in kept constant during the experiment to exclude any effects. Inhibitors were pre-incubated with the enzyme for 15 minutes at 37° C., afterwards the substrate was added and the velocities of AMC release were measured kinetically at λex=380 nm, λem=465 nm for at least 10 minutes at 37° C. […] At least eight different inhibitor concentrations were used. The final DMSO concentration is kept constant during the experiment to exclude any effects. Inhibitors were pre-incubated with the enzyme for 15 minutes at 37° C., afterwards the substrate was added and the velocities of pNA release were measured kinetically at 405 nm for at least 10 minutes at 37° C. Measurements were done on the Infinite 200 (Tecan Group Ltd.) and the Magellan software was used to process the data. • For DPP2: Initial velocity measurements were carried out. Lys-Ala-pNA was used as the substrate at a concentration of 1 mM at pH 5.5 (100 mM NaAc, 10 mM EDTA, 14 μg/mL aprotinin). Inhibitors were tested at one concentration, 5 μM, being the final concentration in the well. Inhibitors were pre-incubated with the enzyme for 15 minutes at 37° C., afterwards the substrate was added and the velocities of pNA release were measured kinetically at 405 nm for at least 10 minutes at 37° C. Measurements were done on the Infinite 200 (Tecan Group Ltd.) and the Magellan software was used to process the data.

A further assay addresses T2, human DPP9 (Homo sapiens, UniProt Q86TI2).
T2 construct: made in house; host or cells: Sf9 insect cells (baculovirus)
In words: DPP9 IC50 measurement (Ala-Pro-pNA). Conditions: for IC50: Ala-Pro-pNA 150 μM, pH 7.4; for Selectivity index DPP9: IC50(DPP9)/IC50(FAP).
Source text: as §1, §2

A further assay addresses T3, DPP4 (Homo sapiens, UniProt P27487).
T3 construct: DPP4 was purified from human seminal plasma; from tissue; host or cells: human seminal plasma
Kind of assay: DPP4 IC50 measurement (Ala-Pro-pNA). Conditions: for IC50: Ala-Pro-pNA 25 μM, pH 7.4; for Selectivity index DPP4: IC50(DPP4)/IC50(FAP).
Source text: as §1, §2

The target in the next assay is T4, human FAP (Homo sapiens, UniProt Q12884).
T4 construct: the human secretion signal was replaced with the HoneyBee mellitin secretion signal; honeybee melittin secretion signal (replaces the native signal) (N); made in house; host or cells: Sf9 insect cells (baculovirus), purified from supernatant
T4 sequence (Q12884 26-760 limits assumed): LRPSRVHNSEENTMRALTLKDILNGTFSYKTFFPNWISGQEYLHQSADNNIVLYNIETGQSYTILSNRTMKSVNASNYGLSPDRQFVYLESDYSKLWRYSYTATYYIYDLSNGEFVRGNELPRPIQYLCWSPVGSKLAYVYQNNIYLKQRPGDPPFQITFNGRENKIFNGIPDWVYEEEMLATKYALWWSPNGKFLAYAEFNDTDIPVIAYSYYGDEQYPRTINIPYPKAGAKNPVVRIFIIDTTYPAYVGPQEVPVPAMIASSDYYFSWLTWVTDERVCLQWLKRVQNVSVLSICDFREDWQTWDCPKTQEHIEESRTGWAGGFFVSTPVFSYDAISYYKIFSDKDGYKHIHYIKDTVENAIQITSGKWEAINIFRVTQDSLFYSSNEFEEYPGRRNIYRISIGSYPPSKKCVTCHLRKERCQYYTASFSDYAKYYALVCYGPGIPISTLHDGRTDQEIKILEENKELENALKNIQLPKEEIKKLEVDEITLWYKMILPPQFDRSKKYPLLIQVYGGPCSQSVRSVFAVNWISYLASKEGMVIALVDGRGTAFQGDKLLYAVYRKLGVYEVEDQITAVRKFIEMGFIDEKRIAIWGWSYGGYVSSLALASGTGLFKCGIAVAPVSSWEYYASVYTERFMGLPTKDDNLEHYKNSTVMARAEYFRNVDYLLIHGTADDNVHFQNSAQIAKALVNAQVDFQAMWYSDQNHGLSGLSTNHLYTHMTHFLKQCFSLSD
In words: FAP IC50 measurement (Z-Gly-Pro-AMC). Conditions: Z-Gly-Pro-AMC 50 μM, pH 8, 15 min pre-incubation.
Source text: as §1, §2

The next assay addresses T5, Human recombinant PREP (Homo sapiens, UniProt P48147).
T5 construct: made in house; host or cells: E. coli BL21(DE3)
T5 sequence (P48147 1-710): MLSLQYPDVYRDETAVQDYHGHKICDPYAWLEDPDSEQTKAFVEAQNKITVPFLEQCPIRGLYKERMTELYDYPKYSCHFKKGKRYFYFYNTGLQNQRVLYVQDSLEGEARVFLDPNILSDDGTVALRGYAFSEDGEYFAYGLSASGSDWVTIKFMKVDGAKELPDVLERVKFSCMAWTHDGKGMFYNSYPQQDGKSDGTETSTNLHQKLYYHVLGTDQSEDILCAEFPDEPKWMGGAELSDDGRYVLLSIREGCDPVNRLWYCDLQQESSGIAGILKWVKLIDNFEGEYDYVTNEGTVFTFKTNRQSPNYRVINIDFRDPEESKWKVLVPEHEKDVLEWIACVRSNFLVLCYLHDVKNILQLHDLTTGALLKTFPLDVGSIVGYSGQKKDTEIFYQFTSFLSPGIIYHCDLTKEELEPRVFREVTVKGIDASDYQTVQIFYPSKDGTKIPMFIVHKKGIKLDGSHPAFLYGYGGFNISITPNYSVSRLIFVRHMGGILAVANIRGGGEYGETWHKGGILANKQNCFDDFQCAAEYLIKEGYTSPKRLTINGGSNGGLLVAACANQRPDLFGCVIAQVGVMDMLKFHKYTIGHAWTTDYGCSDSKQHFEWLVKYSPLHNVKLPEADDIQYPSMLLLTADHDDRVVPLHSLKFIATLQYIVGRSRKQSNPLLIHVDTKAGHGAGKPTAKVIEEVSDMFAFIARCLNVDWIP
In words: PREP IC50 measurement (N-succinyl-Gly-Pro-AMC). Conditions: for Selectivity index PREP: IC50(PREP)/IC50(FAP); for IC50: N-succinyl-Gly-Pro-AMC 250 μM, pH 7.4.
Source text: as §1, §2

Structures are written as SMILES. Bounds are passed on as bounds.

T2 sequence (Q86TI2 whole entry): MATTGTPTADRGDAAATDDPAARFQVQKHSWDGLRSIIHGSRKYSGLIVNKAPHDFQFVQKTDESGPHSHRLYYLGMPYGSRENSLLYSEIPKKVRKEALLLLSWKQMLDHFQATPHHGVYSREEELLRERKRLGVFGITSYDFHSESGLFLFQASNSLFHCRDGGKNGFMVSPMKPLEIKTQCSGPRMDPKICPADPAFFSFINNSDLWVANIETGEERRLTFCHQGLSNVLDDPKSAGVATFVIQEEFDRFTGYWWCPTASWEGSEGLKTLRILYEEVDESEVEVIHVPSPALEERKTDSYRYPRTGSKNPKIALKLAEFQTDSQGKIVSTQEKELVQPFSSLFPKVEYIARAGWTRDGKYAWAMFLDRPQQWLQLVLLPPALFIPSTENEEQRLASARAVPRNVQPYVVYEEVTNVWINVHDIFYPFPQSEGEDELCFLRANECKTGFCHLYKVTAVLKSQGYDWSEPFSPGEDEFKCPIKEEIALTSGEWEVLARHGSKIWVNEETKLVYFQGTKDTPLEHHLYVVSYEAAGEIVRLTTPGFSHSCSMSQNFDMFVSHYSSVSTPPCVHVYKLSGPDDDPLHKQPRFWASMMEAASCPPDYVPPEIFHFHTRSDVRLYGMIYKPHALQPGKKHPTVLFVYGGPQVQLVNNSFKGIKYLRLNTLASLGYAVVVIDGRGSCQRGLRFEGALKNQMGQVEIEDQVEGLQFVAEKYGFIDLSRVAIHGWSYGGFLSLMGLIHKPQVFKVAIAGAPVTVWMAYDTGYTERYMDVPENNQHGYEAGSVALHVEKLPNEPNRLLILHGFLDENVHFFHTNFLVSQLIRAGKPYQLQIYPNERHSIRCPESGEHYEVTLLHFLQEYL
T1 sequence (Q6V1X1 whole entry): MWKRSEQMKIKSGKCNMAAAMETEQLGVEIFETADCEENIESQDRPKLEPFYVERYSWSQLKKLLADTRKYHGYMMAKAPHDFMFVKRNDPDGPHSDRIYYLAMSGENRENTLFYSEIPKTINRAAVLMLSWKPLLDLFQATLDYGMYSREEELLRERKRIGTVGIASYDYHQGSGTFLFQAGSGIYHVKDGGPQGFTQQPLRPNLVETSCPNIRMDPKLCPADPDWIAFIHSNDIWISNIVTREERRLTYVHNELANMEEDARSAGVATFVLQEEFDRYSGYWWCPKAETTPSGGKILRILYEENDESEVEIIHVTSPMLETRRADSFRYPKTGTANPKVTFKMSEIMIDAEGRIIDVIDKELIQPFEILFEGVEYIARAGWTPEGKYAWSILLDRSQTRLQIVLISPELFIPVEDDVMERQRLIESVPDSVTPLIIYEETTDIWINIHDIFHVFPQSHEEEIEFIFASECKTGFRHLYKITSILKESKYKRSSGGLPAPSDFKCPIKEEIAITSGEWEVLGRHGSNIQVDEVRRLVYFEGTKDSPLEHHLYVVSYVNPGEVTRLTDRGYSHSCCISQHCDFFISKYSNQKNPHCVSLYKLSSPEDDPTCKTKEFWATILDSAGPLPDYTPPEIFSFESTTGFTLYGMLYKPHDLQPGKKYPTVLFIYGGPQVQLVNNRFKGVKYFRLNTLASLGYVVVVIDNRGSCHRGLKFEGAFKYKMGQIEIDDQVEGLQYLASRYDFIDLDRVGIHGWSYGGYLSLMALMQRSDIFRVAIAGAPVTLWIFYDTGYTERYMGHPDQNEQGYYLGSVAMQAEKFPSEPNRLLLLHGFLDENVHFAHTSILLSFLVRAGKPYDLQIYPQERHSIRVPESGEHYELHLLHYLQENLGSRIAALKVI
T3 sequence (P27487 whole entry): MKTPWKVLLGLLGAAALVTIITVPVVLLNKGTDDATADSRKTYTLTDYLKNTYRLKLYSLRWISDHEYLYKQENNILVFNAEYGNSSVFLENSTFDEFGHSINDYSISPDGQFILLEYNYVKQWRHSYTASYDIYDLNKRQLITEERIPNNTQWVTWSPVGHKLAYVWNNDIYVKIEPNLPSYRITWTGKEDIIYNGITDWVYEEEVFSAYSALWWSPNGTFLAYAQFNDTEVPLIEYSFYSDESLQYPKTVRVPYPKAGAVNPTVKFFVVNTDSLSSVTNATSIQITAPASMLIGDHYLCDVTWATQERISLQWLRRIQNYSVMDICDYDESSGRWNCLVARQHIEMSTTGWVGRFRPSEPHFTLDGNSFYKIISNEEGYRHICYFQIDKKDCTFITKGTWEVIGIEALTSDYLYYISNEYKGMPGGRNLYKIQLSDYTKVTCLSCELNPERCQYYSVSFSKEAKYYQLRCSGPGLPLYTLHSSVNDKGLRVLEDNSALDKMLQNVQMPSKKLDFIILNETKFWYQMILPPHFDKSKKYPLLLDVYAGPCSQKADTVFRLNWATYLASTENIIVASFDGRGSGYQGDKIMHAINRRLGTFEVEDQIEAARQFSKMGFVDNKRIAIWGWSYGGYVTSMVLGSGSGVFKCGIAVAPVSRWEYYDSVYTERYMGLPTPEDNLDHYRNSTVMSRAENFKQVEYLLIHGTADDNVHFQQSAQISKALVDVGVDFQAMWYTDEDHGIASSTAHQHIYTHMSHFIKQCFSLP

For orientation: IC50 means the concentration that inhibits the measured activity by half. On to `CC(C)(C)OC(=O)N1CC[N+](C)(CCCOc2ccc3nccc(C(=O)NCC(=O)N4CC(F)(F)C[C@H]4C#N)c3c2)CC1` [Compound 11, (S)-4-(tert-butoxycarbonyl)-1-(3-((4-((2-(2-cyano-4,4-difluoropyrrolidin-1-yl)-2-oxoethyl)carbamoyl)quinolin-6-yl)oxy)propyl)-1-methylpiperazin-1-ium iodide], for which, at human DPP8, the IC50 is more than 1000 nM and the “Selectivity index DPP8” value is given as more than 2200. Also, on human DPP9, inhibition was half-maximal at 620 ± 80 nM (IC50) and the “Selectivity index DPP9” value is more than 2200. Besides, on DPP4, the IC50 was more than 10000 nM and the “Selectivity index DPP4” value is more than 22000. On human FAP, the IC50 came to 0.44 ± 0.05 nM. Besides, at Human recombinant PREP, the “Selectivity index PREP” value was more than 22000 and the half-maximal inhibitory concentration (IC50) is more than 10000 nM.

Regarding `C[N+]1(CCCOc2ccc3nccc(C(=O)NCC(=O)N4CC(F)(F)C[C@H]4C#N)c3c2)CCN(C(=O)c2ccc(B(O)O)cc2)CC1.Cc1ccc(S(=O)(=O)[O-])cc1` [Compound 12, (S)-4-(4-boronobenzoyl)-1-(3-((4-((2-(2-cyano-4,4-difluoropyrrolidin-1-yl)-2-oxoethyl)carbamoyl)quinolin-6-yl)oxy)propyl)-1-methylpiperazin-1-ium 4-methylbenzenesulfonate], at human DPP8, the IC50 was more than 1000 nM and the “Selectivity index DPP8” value is on record as more than 1700. Besides, at human DPP9, the IC50 is more than 1000 nM and the “Selectivity index DPP9” value is listed as more than 1700. On DPP4, the IC50 is more than 1000 nM and the “Selectivity index DPP4” value is more than 17000. Also, at human FAP, the IC50 is 0.57 ± 0.05 nM. In addition, at Human recombinant PREP, the “Selectivity index PREP” value is more than 17000 and the IC50 is more than 10000 nM.

Regarding `C[N+]1(CCCOc2ccc3nccc(C(=O)NCC(=O)N4CC(F)(F)C[C@H]4C#N)c3c2)CCN(C(=O)c2ccc(I)cc2)CC1` [Compound 13, (S)-1-(3-((4-((2-(2-cyano-4,4-difluoropyrrolidin-1-yl)-2-oxoethyl)carbamoyl)quinolin-6-yl)oxy)propyl)-4-(4-iodobenzoyl)-1-methylpiperazin-1-ium hexafluorophosphate(V)], at human DPP8, the IC50 was more than 1000 nM and the “Selectivity index DPP8” value is recorded as more than 2200. For the same molecule, on human DPP9, inhibition was half-maximal at 670 ± 30 nM (IC50) and the “Selectivity index DPP9” value is listed as more than 2200. At DPP4, the IC50 was more than 10000 nM and the “Selectivity index DPP4” value is more than 22000. This molecule came in with an IC50 against human FAP of 0.44 ± 0.1 nM. On Human recombinant PREP, the “Selectivity index PREP” value is more than 22000 and the IC50 is more than 10000 nM.

As for `C[N+]1(CCCOc2ccc3nccc(C(=O)NCC(=O)N4CC(F)(F)C[C@H]4C#N)c3c2)CCN(C(=O)c2ccc(F)cc2)CC1` [Compound 14, (S)-1-(3-((4-((2-(2-cyano-4,4-difluoropyrrolidin-1-yl)-2-oxoethyl)carbamoyl)quinolin-6-yl)oxy)propyl)-4-(4-fluorobenzoyl)-1-methylpiperazin-1-ium], on human DPP8, the IC50 is more than 10000 nM and the “Selectivity index DPP8” value is more than 10000. Besides, on human DPP9, the IC50 is more than 1000 nM and the “Selectivity index DPP9” value is more than 1000. Also, at DPP4, the IC50 was more than 10000 nM and the “Selectivity index DPP4” value was more than 10000. In addition, 0.95 ± 0.1 nM corresponded to half-maximal inhibition at human FAP (IC50). Further, at Human recombinant PREP, the “Selectivity index PREP” value is given as more than 10000 and the IC50 was more than 10000 nM.

Source of the values: US20250339566A1, “INHIBITORS OF FIBROBLAST ACTIVATION PROTEIN” (UNIVERSITEIT ANTWERPEN, priority 2022, published 2025).
